Measurements from patent EP4740932A2, “COSMETIC COMPOSITION FOR SKIN IMPROVEMENT AND PHARMACEUTICAL COMPOSITION FOR PREVENTING OR TREATING SKIN DAMAGE, EACH CONTAINING HONOKIOL AND POLYOL” (Cosmax, Inc., priority 2023, dated 2025).

Tests used:
Hs68 cells = assay: MTT cytotoxicity evaluation on skin dermis cells; assay type: cell-based; conditions: Hs68 (skin dermis cells), 0.1, 0.5, 1 and 5 ppm, 24 hours, at concentrations of 5 ppm or less
Protocol: (§1) Toxicity assessments of honokiol on skin epidermis and dermal cells were performed. Specifically, HaCaT cells, which are skin keratinocytes, and Hs68 cells, which are skin dermis cells, were cultured in a 96 well plate at a concentration of 2 X […] and cultured in a medium including FBS ([…]) and antibiotics (Antibiotic antibiotic) at 37°C and 5% CO2 for 24 hours, and then further cultured by treating the medium including only antibiotics with 0.1, 0.5, 1, and 5 ppm for each concentration on the next day. After 24 hours, the toxic concentration of the honokiol material on skin cells was determined by replacing it with medium containing MTT tetrazolum (Sigma-aldrich, St. Lous, USA) and by reacting at 37°C for 4 hours to evaluate the cellular metabolic activity.

HaCaT cells = assay: MTT cytotoxicity evaluation on skin keratinocytes; assay type: cell-based; conditions: HaCaT (skin stratum corneum cells), 0.1, 0.5, 1 and 5 ppm, 24 hours, at concentrations of 5 ppm or less
Protocol: as §1

TSLP = assay: qRT-PCR of inflammation-related factor in Poly I:C/IL-4 stimulated HaCaT cells; assay type: cell-based; conditions: 10 µg/ml Poly I:C and 10 µg/ml IL-4, 1 ppm, 4 hours
Protocol: Specifically, HaCaT cells, which are skin stratum corneum cells, were treated (+) with 10 µg/ml of Poly I:C and 10 µg/ml of IL-4 protein, which are inflammatory response inducing substances, and prepared as an experimental group in which 1 µM (Dexa) of dexamethasone (DEXA), retinol, and honokiol, which are […], were treated for 4 hours at 0.1 and 1 ppm, respectively. The untreated group (-) was prepared as a negative control.
Afterwards, the expression level of the TSLP gene, an inflammation-related factor expressed in skin keratinocytes, was measured through qRT-PCR analysis, converted based on the expression level of ectin, and compared.

filaggrin (FLG) = assay: qRT-PCR of filaggrin in HaCaT cells; assay type: cell-based; conditions: 24 hours
Protocol: (§2) Specifically, HaCaT cells, which are skin stratum corneum cells, were treated with retinol and honokiol at 0.1 and 1 ppm, respectively, for 24 hours.
(§3) Subsequently, through qRT-PCR analysis, the mRNA expression of filaggrin (FLG), a moisturizing component-related factor present in keratinocytes constituting the skin barrier, and the CLDN1 gene, a factor related to the binding of the skin barrier, were measured and compared based on the β-actin expression level.

AQP3 = assay: qRT-PCR of moisture migration factor in HaCaT cells; assay type: cell-based; conditions: 24 hours
Protocol: as §2
(§4) The mRNA expression levels of the AQP3 gene, which is a factor related to the migration of moisture present in the dermis, and the HAS3 gene, which is a factor related to hyaluronic acid synthase, were then measured through qRT-PCR analysis, and the β-actin expression levels were converted and compared.

[1] = DPPH test of antioxidant activity; assay type: biochemical; conditions: 10 and 100 ppm, room temperature, 30 minutes; compared to retinol
Protocol: It was confirmed by the DPPH test whether honokiol exerts antioxidant activity.
Specifically, the DPPH solution was treated with Ascorbic Acid (AA), retinol, and honokiol at 10 and 100 ppm, respectively, at room temperature for 30 minutes. The absorbance was measured at 517 nm to show antioxidant activity as the ratio of the decrease in absorbance to the control. At this time, ascorbic acid, an antioxidant, was used as a control group for determining the absorbance reduction ratio.

FBN = assay: qRT-PCR of fibronectin production factor in UVB-irradiated Hs68 cells; assay type: cell-based; conditions: Hs68, UVB 25 mJ/cm^2, 1 ppm, 24 hours; compared with RA, EGCG, retinol
Protocol: (§5) Specifically, Hs68 cells, which are skin dermal layer cells, were irradiated with UVB (ultraviolet-B) having a 25 mJ/cm^2 intensity, and then treated with RA, EGCG, retinol, and honokiol, 1 ppm each, for 24 hours.
(§6) The mRNA expression levels of ELN1, a factor associated with elastin production promotion, and FBN, a factor associated with fibronectin production promotion, were then measured using qRT-PCR analysis, and the levels of actin expression from the UVB non-irradiated group were converted and compared.

HAS3 = assay: qRT-PCR of hyaluronic acid synthase factor in HaCaT cells; assay type: cell-based; conditions: 24 hours
Protocol: as §2, §4

[2] = Solvent selection: dissolving 5 wt % honokiol in water, BG, MCT; assay type: physicochemical
Excerpt: Honokiol is a poorly soluble component and has low solubility in water, so it has the property of being dissolved in an organic solvent. To stabilize the cosmetic composition including honokiol at a high concentration of 5 wt %, three types of solvents corresponding to water, Butylene Glycol (BG), and medium-chain triglyceride (MCT) oil were applied to confirm the result.

CLDN1 = assay: qRT-PCR of skin barrier binding factor in HaCaT cells; assay type: cell-based; conditions: 1 ppm, 24 hours, versus control group
Protocol: as §2, §3

COL1A1 = assay: qRT-PCR of collagen production promotion factor in UVB-irradiated Hs68 cells; assay type: cell-based; conditions: Hs68, UVB 25 mJ/cm^2, 1 ppm, 24 hours; relative to UVB non-irradiated group; compared with RA, EGCG, retinol
MMP-1 = assay: qRT-PCR of collagen degradation enzyme factor in UVB-irradiated Hs68 cells; assay type: cell-based; conditions: Hs68, UVB 25 mJ/cm^2, 1 ppm, 24 hours; relative to UVB non-irradiated group
Protocol: It was determined whether honokiol increases the amount of skin collagen. Specifically, Hs68 cells, which are skin dermal layer cells, were irradiated with 25 mJ/cm^2 intensity of UVB (ultraviolet B), and then treated with RA (retinoic acid), EGCG (epigallocatechin gallate), retinol, and honokiol at a concentration of 1 ppm for 24 hours, respectively.
The mRNA expression of the collagen production promotion factor COL1A1 and the collagen degradation enzyme factor MMP-1 gene was measured through qRT-PCR analysis and converted based on the actin expression, and the relative values for the expression of the UVB non-irradiated group were calculated and compared.
The collagen production amount was compared in the same manner as in Example 2-1, and the treatment sample was changed to a honokiol solution dissolved in RA (retinoic acid), retinol, DMSO (dimethyl sulfoxide), a honokiol solution dissolved in BG, and a honokiol solution dissolved in PG (propylene glycol).
In Example 2-1, a 5% (w/w) solution was prepared as a sample to confirm stability in a high concentration dissolved state, whereas a honokiol solution for treating cells was prepared at a concentration of 1 mg/ml, and the honokiol alone component treated in cells was performed to be 1 ppm.

ELN1 = assay: qRT-PCR of elastin production factor in UVB-irradiated Hs68 cells; assay type: cell-based; conditions: Hs68, UVB 25 mJ/cm^2, 1 ppm, 24 hours; compared with RA, EGCG, retinol
Protocol: as §5, §6

[3] = HPLC potency analysis after storage; assay type: physicochemical; conditions: harsh environments of low temperature, high temperature, and cycle
Protocol: Honokiol was dissolved in BG and MCT at a concentration of 5 wt %, and high-performance liquid chromatography (HPLC) was performed to observe whether precipitates were formed at 4°C, 25°C, 45°C, 50°C, and sunlight, and to analyze potency.

[4] = 0.1 and 1 ppm, overall versus retinol

C=CCc1ccc(O)c(-c2ccc(O)c(CC=C)c2)c1 [honokiol]
cytotoxicity (Hs68 cells): did not cause cytotoxicity | cytotoxicity (HaCaT cells): did not cause cytotoxicity | TSLP gene expression amount (TSLP): significantly reducing the expression amount of the TSLP gene | FLG mRNA expression (filaggrin (FLG); [4]): higher expression than the retinol-treated group overall | FLG mRNA expression (filaggrin (FLG); 1 ppm): significantly increased the expression of the FLG gene | AQP3 mRNA expression level (AQP3; [4]): higher overall expression than the retinol-treated group | AQP3 mRNA expression level (AQP3; 1 ppm): significantly increased the expression of related genes | antioxidant activity (DPPH, decrease in absorbance at 517 nm) [1]: remarkably high antioxidant activity compared to retinol | FBN mRNA expression level (FBN): highest expression level among the UV-irradiated groups but also showed a higher expression level than the UV-unirradiated group | HAS3 mRNA expression level (HAS3; [4]): higher overall expression than the retinol-treated group | HAS3 mRNA expression level (HAS3; 1 ppm): significantly increased the expression of related genes | solubility ([2]; 5 wt % honokiol in BG): well soluble | solubility ([2]; 5 wt % honokiol in MCT): well soluble | solubility ([2]; 5 wt % honokiol in water): low | CLDN1 mRNA expression level (CLDN1): significantly increased the expression level of the CLDN1 gene compared to that of the control group | COL1A1 mRNA expression (collagen production) (COL1A1): higher collagen production than the UVB-only irradiated group, and showed the highest collagen production among all UVB irradiated groups | MMP-1 mRNA expression (collagen degrading enzyme production) (MMP-1): lower amount of collagen degrading enzyme production than the UVB-only irradiation group | ELN1 mRNA expression level (ELN1): highest expression level among the UV-irradiated groups but also showed a higher expression level than the UV-unirradiated group | potency maintenance (stability of the material) [3]: maintained its potency well
